Values belong to the compound of their own block, whether it stands above or below them.
Columns and labels:
[1] = system: MCh-induced depressor responses; test: Methacholine-induced depressor responses in conscious guinea pigs; format: in vivo; conditions: guinea pig, inhalation
Description: Healthy, adult, male Sprague-Dawley guinea pigs (Harlan, Indianapolis, Ind.), weighing between 200 and 300 g were used in these studies. Under isoflurane anesthesia (to effect), animals were instrumented with common carotid artery and jugular vein catheters (PE-50 tubing). The catheters were exteriorized utilizing a subcutaneous tunnel to the subscapular area. All surgical incisions were sutured with 4-0 Ethicon Silk and the catheters locked with heparin (1000 units/mL). Each animal was administered saline (3 mL, SC) at the end of surgery as well as buprenorphine (0.05 mg/kg, IM). Animals were allowed to recover on a heating pad before being returned to their holding rooms.
Approximately 18 to 20 hours following surgery, the animals were weighed and the carotid artery catheter on each animal was connected to a transducer for recording arterial pressure. Arterial pressure and heart rate was recorded using a Biopac MP-100 Acquisition System. Animals were allowed to acclimate and stabilize for a period of 20 minutes.
Each animal was challenged with MCh (0.3 mg/kg, IV) administered through the jugular venous line and the cardiovascular response was monitored for 10 minutes. […] At 1.5 and 24 hours post-dosing, the animals were re-challenged with MCh (0.3 mg/kg, IV) and the hemodynamic response was determined. […]

hM3 receptor (CHO cells) = biological target: T1, hM3 receptor (CHO cells) (Homo sapiens, UniProt P20309); test: Blockade of agonist-mediated calcium release via FLIPR assay; format: cell-based; conditions: CHO cells stably expressing the hM3 receptor
T1 construct: expressed in transfected cells
T1 sequence (P20309 whole entry): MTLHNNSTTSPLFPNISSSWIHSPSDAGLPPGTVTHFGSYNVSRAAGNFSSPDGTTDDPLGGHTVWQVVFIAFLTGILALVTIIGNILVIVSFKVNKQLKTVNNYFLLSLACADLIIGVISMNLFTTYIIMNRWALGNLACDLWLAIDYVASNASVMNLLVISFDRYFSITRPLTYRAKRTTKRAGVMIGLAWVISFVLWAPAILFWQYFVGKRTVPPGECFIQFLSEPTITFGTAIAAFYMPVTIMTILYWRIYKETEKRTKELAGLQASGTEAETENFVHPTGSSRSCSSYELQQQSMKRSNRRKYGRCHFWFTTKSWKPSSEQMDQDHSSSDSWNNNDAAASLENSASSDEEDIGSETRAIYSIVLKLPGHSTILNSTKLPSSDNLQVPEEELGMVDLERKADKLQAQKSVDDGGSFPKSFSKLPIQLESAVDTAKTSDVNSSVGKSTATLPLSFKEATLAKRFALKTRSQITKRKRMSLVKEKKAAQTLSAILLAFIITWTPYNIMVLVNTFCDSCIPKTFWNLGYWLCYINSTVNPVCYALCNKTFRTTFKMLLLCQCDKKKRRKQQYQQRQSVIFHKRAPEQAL
Description: C. Blockade of Agonist-Mediated Calcium Release via FLIPR Assays
Muscarinic receptor subtypes (M1, M3 and M5 receptors), which couple to Gq proteins, activate the phospholipase C (PLC) pathway upon agonist binding to the receptor. As a result, activated PLC hydrolyzes phosphatyl inositol diphosphate (PIP2) to diacylglycerol (DAG) and phosphatidyl-1,4,5-triphosphate (IP3), which in turn generates calcium release from intracellular stores, i.e., endoplasmic and sarcoplasmic reticulum. […] This fluorescence event was measured in real time by the FLIPR, which detected the change in fluorescence from a monolayer of cells cloned with human M1 and M3, and chimpanzee M5 receptors. Antagonist potency was determined by the ability of antagonists to inhibit agonist-mediated increases in intracellular calcium. […]
To determine antagonist potency, the dose-dependent stimulation of intracellular Ca^2+release for oxotremorine was first determined so that antagonist potency can later be measured against oxotremorine stimulation at an EC90 concentration. […] Baseline was determined by measuring the change in fluorescence for 10 seconds prior to addition of agonist. Following agonist stimulation, the FLIPR continuously measured the change of fluorescence every 0.5 to 1 second for 1.5 minutes to capture the maximum fluorescence change. […]

[2] = biological target: T2, hM2 receptor (CHO-K1 cell membranes) (Homo sapiens, UniProt P08172); test: Blockade of agonist-mediated (oxotremorine-stimulated) [35S]GTPγS binding; format: biochemical; conditions: CHO-K1 cells expressing the hM2 receptor
T2 construct: expressed in transfected cells; host or cells: membranes of CHO (CHO-K1) cells stably expressing the cloned human receptor
T2 sequence (P08172 1-466): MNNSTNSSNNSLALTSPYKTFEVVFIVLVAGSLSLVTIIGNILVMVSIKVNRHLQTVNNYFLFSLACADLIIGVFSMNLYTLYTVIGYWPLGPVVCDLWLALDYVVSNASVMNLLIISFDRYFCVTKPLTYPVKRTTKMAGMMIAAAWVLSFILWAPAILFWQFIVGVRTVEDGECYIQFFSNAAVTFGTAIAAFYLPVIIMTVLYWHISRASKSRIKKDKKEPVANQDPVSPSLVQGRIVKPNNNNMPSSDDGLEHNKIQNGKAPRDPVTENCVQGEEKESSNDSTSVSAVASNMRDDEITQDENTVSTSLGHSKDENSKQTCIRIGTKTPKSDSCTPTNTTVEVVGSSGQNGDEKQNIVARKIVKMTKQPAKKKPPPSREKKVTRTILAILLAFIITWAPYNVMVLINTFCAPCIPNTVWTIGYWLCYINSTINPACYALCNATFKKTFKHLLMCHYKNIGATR
Experimental: B. Blockade of Agonist-Mediated [^35S]GTPγS Binding
In a second functional assay, the functional potency of test compounds can be determined by measuring the ability of the compounds to block oxotremorine-stimulated [^35S]GTPγS binding in CHO—K1 cells expressing the hM2 receptor.
At the time of use, frozen membranes were thawed and then diluted in assay buffer with a final target tissue concentration of 5-10 μg protein per well. The membranes were briefly homogenized using a Polytron PT-2 100 tissue disrupter and then added to the assay plates.
The EC90 value (effective concentration for 90% maximal response) for stimulation of[^35S]GTPγS binding by the agonist oxotremorine was determined in each experiment.
To determine the ability of a test compound to inhibit oxotremorine-stimulated [^35S]GTPγS binding, the following was added to each well of 96 well plates: 25 μL of assay buffer with [^35S]GTPγS (0.4nM), 25 μL of oxotremorine(ECgo) and GDP (3 μM), 25 μL of diluted test compound and 25 μL CHO cell membranes expressing the hM2 receptor. […] Microscint-20 scintillation liquid (50 μL) was added to each well, and each plate was sealed and radioactivity counted on a topcounter (PerkinElmer). Data were analyzed by nonlinear regression analysis with the GraphPad Prism Software package (GraphPad Software, Inc., San Diego, Calif.) using the non-linear regression, one-site competition equation. […]

[3] = system: ACh-induced bronchoconstriction; test: Duration of bronchoprotection in guinea pig model of acetylcholine-induced bronchoconstriction; format: in vivo; conditions: inhalation, 1.5 hours post-dose
Experimental: Groups of six male guinea pigs (Duncan-Hartley (HsdPoc:DH) Harlan, Madison, Wisc.) weighing between 250 and 350 g were individually identified by cage cards. Throughout the study animals were allowed access to food and water ad libitum.
Test compounds were administered via inhalation over 10 minutes in a whole-body exposure dosing chamber (R&S Molds, San Carlos, Calif.). The dosing chambers were arranged so that an aerosol was simultaneously delivered to 6 individual chambers from a central manifold. Guinea pigs were exposed to an aerosol of a test compound or vehicle (WFI). […] This was measured gravimetrically by comparing pre-and post-nebulization weights of the filled nebulizer.
The bronchoprotective effects of test compounds administered via inhalation were evaluated using whole body plethysmography at 1.5, 24, 48 and 72 hours post-dose.
Forty-five minutes prior to the start of the pulmonary evaluation, each guinea pig was anesthetized with an intramuscular injection of ketamine (43.75 mg/kg), xylazine (3.50 mg/kg) and acepromazine (1.05 mg/kg). […] The depth of anesthesia was monitored and adjusted if the animal responded to pinching of its paw or if the respiration rate was greater than 100 breaths/minute. […]
Starting this program initiated the experimental protocol and data collection. […] By integrating this signal over time, a measurement offlow was calculated for each breath. […]

[4] = biological target: T3, hM2 receptor (CHO-K1 cells) (Homo sapiens, UniProt P08172); test: Blockade of agonist-mediated (oxotremorine) inhibition of forskolin-mediated cAMP accumulation; format: cell-based; conditions: CHO-K1 cells expressing the hM2 receptor
T3 construct: expressed in transfected cells; host or cells: CHO-K1 cells
T3 sequence (P08172 1-466): T2 sequence (P08172 1-466)
Experimental: A. Blockade of Agonist-Mediated Inhibition of cAMP Accumulation
In this assay, the functional potency of a test compound was determined by measuring the ability of the test compound to block oxotremorine-inhibition of forskolin-mediated cAMP accumulation in CHO—K1 cells expressing the hM2 receptor.
cAMP assays were performed in a radioimmunoassay format using the Flashplate Adenylyl Cyclase Activation Assay System with ^1251-cAMP (NEN SMP004B, PerkinElmer Life Sciences Inc., Boston, Mass.), according to the manufacturer's instructions.
Cells were rinsed once with dPBS and lifted with Trypsin-EDTA solution (0.05% trypsin/0.53 mM EDTA) as described in the Cell Culture and Membrane Preparation section above. […] The cell pellet was then re-suspended in 10 mL dPBS, and the cells were counted with a Coulter Z1 Dual Particle Counter (Beckman Coulter, Fullerton, Calif.). […]
Reactions were incubated for 10 minutes at 37° C. and stopped by addition of 100 μL ice-cold detection buffer. Plates were sealed, incubated overnight at room temperature and counted the next morning on a PerkinElmer TopCount liquid scintillation counter (PerkinElmer Inc., Wellesley, Mass.). The amount of cAMP produced (pmol/well) was calculated based on the counts observed for the samples and cAMP standards, as described in the manufacturer's user manual. […]

[5] = system: pilocarpine-evoked salivation; test: Inhalation guinea pig salivation assay (pilocarpine-evoked salivation); format: in vivo

Structure (SMILES): O=C(CCN1CCC(OC(=O)Nc2ccccc2-c2ccccc2)CC1)NCCCCCNCCc1ccc(O)cc1 [Example 1, Biphenyl-2-ylcarbamic Acid 1-(2-{5-[2-(4-Hydroxyphenyl)ethylamino]pentylcarbamoyl}ethyl)piperidin-4-yl Ester]
apparent lung-selectivity index (ratio of anti-depressor ID50 to bronchoprotective ID50) [1]: greater than 5

Ki (hM3 receptor (CHO cells)): < 10 nM
Ki [2]: < 10 nM
Structure (SMILES): O=C(CCN1CCC(OC(=O)Nc2ccccc2-c2ccccc2)CC1)NCCCCCNCc1ccc(O)cc1 [Example 2, Biphenyl-2-ylcarbamic Acid 1-{2-[5-(4-Hydroxybenzylamino)pentylcarbamoyl]ethyl}piperidin-4-yl Ester]

Ki [4]: < 10 nM
Structure (SMILES): CN(CCCCCNC(=O)CCN1CCC(OC(=O)Nc2ccccc2-c2ccccc2)CC1)Cc1ccc(O)cc1 [Example 3, Biphenyl-2-ylcarbamic Acid 1-(2-{5-[(4-Hydroxybenzyl)methylamino]pentylcarbamoyl}ethyl)piperidin-4-yl Ester]
PD2(50) for ACh-induced bronchoconstriction [3]: less than 200 μg/mL

Structure (SMILES): N[C@@H](Cc1ccc(O)cc1)C(=O)NCCCCCNC(=O)CCN1CCC(OC(=O)Nc2ccccc2-c2ccccc2)CC1 [Example 6, Biphenyl-2-ylcarbamic Acid 1-(2-{5-[(S)-2-Amino-3-(4-Hydroxyphenyl)propionylamino]pentylcarbamoyl}ethyl)piperidin-4-yl Ester]
apparent lung selectivity index (ratio of anti-sialagogue ID50 to bronchoprotective ID50) [5]: greater than 5

Source: patent US7569588B2, “Biphenyl compounds useful as muscarinic receptor antagonists” (Theravance, Inc., priority 2004, dated 2009)
